Test [1] relates to Colo205. The experiment in a line: EC50 determination in cancer cell lines. It is filed as cell-based. The following applies: Homo sapiens, COLO 205, 72 h, * n>2. The essentials: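 Treatment lasts 72 h at a fixed vehicle content of DMSO or H2O. The readout is MTS for adherent cells and SRB for suspension cells. Each EC50 is the concentration halving absorbance relative to vehicle.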

The subject of test [2] is HCT-116. The experiment in a line: EC50 determination in cancer cell lines. It is filed as cell-based, human. The following applies: Homo sapiens, HCT-116, 72 h. As for the experimental part:
Compounds were added at different concentrations to each well, and cell cultures were incubated for 72 h. Vehicle (DMSO or H2O) was used as a control, and all compounds were tested in a constant percentage of vehicle. Cell outgrowth was measured using for adherent cells CellTiter […] Aqueous One Solution Cell Proliferation Assay (Promega) and for cell suspension, Sulforhodamine B colorimetric assay as described in Vichai et al. (Vichai, V. and Kirtikara, K. Nat. Protoc. 2006 (1) 1112-1116). Absorbance was measured using an Infinite F200 Pro or Sunrise TECAN plate reader.
The human melanoma cell line A375, colorectal carcinoma cell line HCT-116, hepatocellular carcinoma cell line HepG2 were cultured in Dulbecco's modified Eagle's medium supplemented with 10% fetal bovine serum and 1% Penicillin-Streptomycin. The human melanoma cell lines SK-MEL-28 and SK-MEL-5 were cultured in Minimum Essential Medium. The colorectal carcinoma cell lines HT-29 and Colo205 were respectively cultured in Mc Coy's and RPMI media. The human leukemia cell lines MV4-11 and KG-1 were cultured in Iscove's Modified Dulbecco's Media. The human leukemia cell line MOLM-14 was cultured in Minimum Essential Medium Alpha Medium supplemented with 10% Fetal Bovine Serum and 1% Penicillin-Streptomycin All culture media were supplemented with 10% fetal bovine serum and 1% Penicillin-Streptomycin except for MV4-11 cell line 20% fetal bovine serum and 1% Penicillin-Streptomycin. All the cell lines were maintained at 37° C. with 5% C02.
Briefly, adherent cells, A375, HCT-116, HepG2, SK-MEL-28, SK-MEL-5, HT-29 and Colo205 cells were respectively plated at 800, 5,000, 7,000, 2,500, 3,000-5,000, 5,000 or 5,000 cells per well onto 96-well plates in 90 μL of media per well and were allowed to grow overnight before the assay. For MV4-11 and KG-1 cells that grow in suspension, 40,000-60,000 cells were plated onto 96-well plates immediately before the assay. MOLM-14 cell line, that grow in suspension, 30,000 cells were plated onto 96-well plates immediately before the assay. […]
The experimental data are analyzed using a computer program, Graphpad Prism (GraphPad Software, Inc. La Jolla, Calif.) and EC50 values were determined as the dose of compound required to reduce absorbance values to 50% of the signal obtained for vehicle treated cell cultures and were a mean of at least two independent experiments except for EC50 values with (*) where […].

Test [3] relates to HOP-92. As to the kind of experiment: NCI-60 screen (SRB). The following applies: HOP-92 (Non-Small Cell Lung). It is filed as cell-based. As for the experimental part:
(§1) The human tumor cell lines of the cancer screening panel are grown in RPMI 1640 medium containing 5% fetal bovine serum and 2 mM L-glutamine. For a typical screening experiment, cells are inoculated into 96 well microtiter plates in 100 μL at plating densities ranging from 5,000 to 40,000 cells/well depending on the doubling time of individual cell lines. After cell inoculation, the microtiter plates are incubated at 37° C., 5% CO2, 95% air and 100% relative humidity for 24 h prior to addition of experimental drugs.
(§2) After 24 h, two plates of each cell line are fixed in situ with TCA, to represent a measurement of the cell population for each cell line at the time of drug addition (Tz). Experimental drug is solubilized in dimethyl sulfoxide at 400-fold the desired final maximum test concentration and stored frozen prior to use. At the time of drug addition, an aliquot of frozen concentrate is thawed and diluted to twice the desired final maximum test concentration with complete medium containing 50 μg/ml gentamicin. Additional four, 10-fold or ½ log serial dilutions are made to provide a total of five drug concentrations plus control. Aliquots of 100 μl of these different drug dilutions are added to the appropriate microtiter wells already containing 100 μl of medium, resulting in the required final drug concentrations.
(§3) Following drug addition, the plates are incubated for an additional 48 h at 37° C., 5% CO2, 95% air, and 100% relative humidity. For adherent cells, the assay is terminated by the addition of cold TCA. Cells are fixed in situ by the gentle addition of 50 μl of cold 50% (w/v) TCA (final concentration, 10% TCA) and incubated for 60 minutes at 4° C. The supernatant is discarded, and the plates are washed five times with tap water and air dried. Sulforhodamine B (SRB) solution (100 μl) at 0.4% (w/v) in 1% acetic acid is added to each well, and plates are incubated for 10 minutes at room temperature. After staining, unbound dye is removed by washing five times with 1% acetic acid and the plates are air dried. Bound stain is subsequently solubilized with 10 mM trizma base, and the absorbance is read on an automated plate reader at a wavelength of 515 nm. For suspension cells, the methodology is the same except that the assay is terminated by fixing settled cells at the bottom of the wells by gently adding 50 μl of 80% TCA (final concentration, 16% TCA). Using the seven absorbance measurements [time zero, (Tz), control growth, (C), and test growth in the presence of drug at the five concentration levels (Ti)], the percentage growth is calculated at each of the drug concentrations levels.
(§4) Percentage growth inhibition is calculated as: [(Ti−Tz)/(C−Tz)]×100 for concentrations for which Ti>/=Tz (1) [(Ti−Tz)/Tz]×100 for concentrations for which Ti<Tz (2)
(§5) Growth inhibition of 50% (GI50) is calculated from [(Ti−Tz)/(C−Tz)]×100=50 (3)
(§6) which is the drug concentration resulting in a 50% reduction in the net protein increase (as measured by SRB staining) in control cells during the drug incubation.
(§7) The drug concentration resulting in total growth inhibition (TGI) is calculated from Ti=Tz (4)
(§8) The LC50 (concentration of drug resulting in a 50% reduction in the measured protein at the end of the drug treatment as compared to that at the beginning) indicating a net loss of cells following treatment is calculated from [(Ti−Tz)/Tz]×100=−50 (5)
(§9) Values are calculated for each of these three parameters if the level of activity is reached; however, if the effect is not reached or is exceeded, the value for that parameter is expressed as greater or less than the maximum or minimum concentration tested.

The subject of test [4] is KM12. As to the kind of experiment: NCI-60 screen (SRB). It is filed as cell-based. The following applies: KM12 (Colon). As for the experimental part: as §1, §2, §3, §4, §5, §6, §7, §8, §9
Where [5] appears, read: Homo sapiens, read-out: LC50 (the source's name).

Consider `CCN(CC)C1CCN(C(C)c2cc(-c3ccc4ccccc4c3)nc3ccccc23)CC1.Cl.Cl` (stereo not drawn) [XXIV-3, 2-(2-naphtyl)-4-{1-[4-(N,N-diethylamino)-piperidin-1-yl]-eth-1-yl}quinoline dihydrochloride], for which the results for the EC50 in test [1] and in test [2] were 5 µM and 4 µM, respectively.
Regarding `Cc1ccc(-c2cc(N3CCC(NC(C)(C)C)CC3)c3ccccc3n2)cc1.Cl.Cl` [XIII-8, 2-(4-methyl-phenyl)-4-(4-N-tert-butylamino-piperidin-1-yl)quinoline dihydrochloride], the EC50 in test [1] and in test [2] was 8 µM each time.
For the compound `CCN(CC)C1CCN(C(C)c2cc(-c3ccccc3)nc3ccccc23)CC1.Cl.Cl` (stereo not drawn) [XIX-3, 2-phenyl-4-{1-[4-(N,N-diethylamino)piperidin-1-yl]-eth-1-yl}quinoline dihydrochloride], the figures for the TGI in test [3] and in test [4] were 17 µM and 22 µM, respectively. Moreover, the “Growth percent at 10 μM” value in test [3] and in test [4] was “++ (cell growth 40 > % < 60)” throughout. In addition, the GI50 in test [3] (Homo sapiens) was 3 µM; in test [4] (Homo sapiens), 10 µM. Moreover, the figures for the CC50 in test [3] (setting [5]) and in test [4] (setting [5]) were 47 µM and 50 µM, respectively. For the same compound, in test [2], it took 12 µM to reach a half-maximal effect (EC50).
Regarding `CC(C)(C)NC1CCN(c2cc(-c3ccc(Cl)cc3)nc3ccccc23)CC1.Cl.Cl` [XII-4, 2-(4-chloro-phenyl)-4-(4-N-tert-butylamino-piperidin-1-yl)quinoline dihydrochloride], the “Growth percent at 10 μM” value was “++ (cell growth 40 > % < 60)” in test [3] and “+ (cell growth 60 > % < 80)” in test [4].

What is called EC50 is the concentration at which the effect is half-maximal. Read a low EC50 as a more potent agent. One may read the TGI as the concentration giving total growth inhibition. Low values mean more potent growth arrest, high ones less potent growth arrest. As a reminder, the GI50 is the concentration that inhibits growth by half. Read a low GI50 as more potent growth inhibition.

The record behind these values is patent US10179770B2, “Quinolines derivatives as novel anticancer agents” (GENOSCIENCE PHARMA, priority 2013, dated 2019).
